Results as given in ChEMBL document CHEMBL4651402, “Screening of ~5500 FDA-approved drugs and clinical candidates for anti-SARS-CoV-2 activity” (2021).

Tested on: SARS-CoV-2
Experiment: microbe, parasite or virus in culture
Conditions: Severe acute respiratory syndrome coronavirus 2, Vero C1008, 48 h

Row | Structure (SMILES) | IC50 | IC50 (read-out: pIC50 (converted))
1 | Cc1nnc(C(=O)NC(C)(C)c2nc(C(=O)NCc3ccc(F)cc3)c(O)c(=O)n2C)o1 | > 20 µM | > 20 µM
2 | COc1nc2ccc(Br)cc2cc1[C@@H](c1ccccc1)[C@@](O)(CCN(C)C)c1cccc2ccccc12 [BEDAQUILINE] | > 20 µM | > 20 µM
3 | CC[C@@]1(O)C(=O)OCc2c1cc1n(c2=O)Cc2cc3c([N+](=O)[O-])cccc3nc2-1 [RUBITECAN] | > 20 µM | > 20 µM
4 | CC(O)COC[C@H]1O[C@@H]2O[C@H]3[C@H](O)[C@@H](O)[C@@H](O[C@H]4[C@H](O)[C@@H](O)[C@@H](O[C@H]5[C@H](O)[C@@H](O)[C@@H](O[C@H]6[C@H](O)[C@@H](O)[C@@H](O[C@H]7[C@H](O)[C@@H](O)[C@@H](O[C@H]8[C@H](O)[C@@H](O)[C@@H](O[C@H]1[C@H](O)[C@H]2O)O[C@@H]8COCC(C)O)O[C@@H]7COCC(C)O)O[C@@H]6COCC(C)O)O[C@@H]5COCC(C)O)O[C@@H]4COCC(C)O)O[C@@H]3COCC(C)O (stereo partly drawn) [2-HYDROXYPROPYL-BETA-CYCLODEXTRIN] | > 20 µM | > 20 µM
5 | O=C1c2c(O)ccc(O)c2C(=O)c2c(NCCNCCO)ccc(NCCNCCO)c21 [MITOXANTRONE] | > 20 µM | > 20 µM
6 | CCc1cc(Nc2nc(-c3ccc(-n4cnc(C)c4)c(F)c3)cs2)c(C)cc1C | > 20 µM | > 20 µM
7 | O=[N+]([O-])/N=C1\NCCN1Cc1ccc(Cl)nc1 [IMIDACLOPRID] | > 20 µM | > 20 µM
8 | O=c1c(O)c(-c2ccc(O)cc2)oc2cc(O)cc(O)c12 [KAEMPFEROL] | > 20 µM | > 20 µM
9 | NC1=NCC(c2ccc(Cl)cc2)O1 (stereo not drawn) [CLOMINOREX] | > 20 µM | > 20 µM
10 | CC[C@H](CO)Nc1nc(NCc2ccccc2)c2ncn(C(C)C)c2n1 [SELICICLIB] | > 20 µM | > 20 µM
11 | CC(=O)N(CC(O)CN(C(C)=O)c1c(I)c(C(=O)NCC(O)CO)c(I)c(C(=O)NCC(O)CO)c1I)c1c(I)c(C(=O)NCC(O)CO)c(I)c(C(=O)NCC(O)CO)c1I (stereo not drawn) [IODIXANOL] | > 20 µM | > 20 µM
12 | CCc1ccc(C(=O)C(C)CN2CCCCC2)cc1 (stereo not drawn) [EPERISONE] | > 20 µM | > 20 µM
13 | CCC[C@@H]1C[C@@H](C(=O)N[C@@H]([C@H]2O[C@H](SC)[C@H](O)[C@@H](O)[C@H]2O)[C@@H](C)O)N(C)C1 [LINCOMYCIN] | > 20 µM | > 20 µM
14 | CCOC(=O)C1=C(CN2CCOCC2)NC(c2nccs2)=N[C@H]1c1ccc(F)cc1Br | > 20 µM | > 20 µM
15 | Nc1nc(=O)[nH]cc1F [FLUCYTOSINE] | > 20 µM | > 20 µM
16 | CCN(CC)CC1CCCCN1CC(=O)N1c2ccccc2C(=O)Nc2cccnc21 (stereo not drawn) [OTENZEPAD] | > 20 µM | > 20 µM
17 | CC1=CC(=O)C2=C(C)CCC3C(C)C(=O)OC3C12 (stereo not drawn) | > 20 µM | > 20 µM

Row | Structure (SMILES) | IC50 | IC50 (read-out: pIC50 (converted))
18 | CC(=O)OC[C@@]1(O)C[C@@]23CC[C@@H]4c5ccoc5CC[C@@]4(C)[C@@H]2CC[C@H]1C3 | > 20 µM | > 20 µM
19 | CC12C=CC(=O)C=C1CCC1C3CC4Cc5ccccc5CC4(C(=O)CO)C3(C)CC(O)C12F (stereo not drawn) | > 20 µM | > 20 µM
20 | Nc1ccc(/N=N/c2ccccc2)c(N)n1 [PHENAZOPYRIDINE] | > 20 µM | > 20 µM
21 | NCC(=O)CCC(=O)O [AMINOLEVULINIC ACID] | > 20 µM | > 20 µM
22 | COc1ccc2c(c1)c(CC(=O)NO)c(C)n2C(=O)c1ccc(Cl)cc1 [OXAMETACIN] | > 20 µM | > 20 µM
23 | CCN(CC)CCOC(=O)C1(c2ccc([N+](=O)[O-])cc2)CCCC1 | > 20 µM | > 20 µM
24 | CC[C@@H](C)C(=O)O[C@H]1[C@H](O)[C@H]2[C@@H](CN3C[C@@H](C)CC[C@H]3[C@@]2(C)O)[C@@H]2C[C@]34O[C@@]5(O)[C@@H](OC(=O)[C@](C)(O)CC)CC[C@@]3(C)[C@@H]5[C@@H](OC(C)=O)[C@@H](OC(C)=O)[C@H]4[C@@]21O | > 20 µM | > 20 µM
25 | CCOC(=O)Nc1ccc(SC[C@H]2CO[C@](Cn3ccnc3)(c3ccc(OC)cc3)O2)cc1 | > 20 µM | > 20 µM
26 | COC(=O)C1=C(C)NC(C)=C(C(=O)OC(C)C)C1c1cccc2nonc12 (stereo not drawn) [ISRADIPINE] | > 20 µM | > 20 µM
27 | CC[C@H]1C2C[C@H]3[C@@H]4N(C)c5ccccc5[C@]45C[C@H](C2[C@H]5O)N3[C@@H]1O (stereo partly drawn) | > 20 µM | > 20 µM
28 | CC(C)(N)C(=O)N[C@H](COCc1ccccc1)C(=O)N1CCC2(CC1)CN(S(C)(=O)=O)c1ccccc12 [IBUTAMOREN] | > 20 µM | > 20 µM
29 | C=CC1=C(C)/C(=C/c2[nH]c(Cc3[nH]c(/C=C4\NC(=O)C(C)=C4C=C)c(C)c3CCC(=O)O)c(CCC(=O)O)c2C)NC1=O [BILIRUBIN] | > 20 µM | > 20 µM
30 | CC1=CC(=O)C2=C(C)C[C@H](O)[C@@H]3[C@H](OC(=O)[C@H]3C)[C@@H]12 [AUSTRICIN] | > 20 µM | > 20 µM
31 | COc1ccc2cc3[n+](cc2c1OC)CCc1cc2c(cc1-3)OCO2 [BERBERINE] | > 20 µM | > 20 µM
32 | NS(=O)(=O)c1ccc(N2CCN(CC[C@H]3OCCc4ccccc43)CC2)cc1 | > 20 µM | > 20 µM
33 | O=C(O)c1cc(=O)[nH]c(=O)[nH]1 [OROTIC ACID] | > 20 µM | > 20 µM
34 | Cl/C(=C\n1cncn1)c1ccc(Cl)cc1Cl [LORECLEZOLE] | > 20 µM | > 20 µM
